Experimental data as given in patent US20120172351A1, “NOVEL FUSED CYCLIC COMPOUND AND USE THEREOF” (priority 2009, published 2012).
Where a name gives a salt, the structure may show the parent alone. Marks after values point to notes of the source that are not given here.

Tests used:
human derived GPR40 = biological target: T1, human derived GPR40 (Homo sapiens, UniProt O14842); experiment: Agonist action on human derived GPR40: change of intracellular calcium concentration in CHO cells (FLIPRtetra); assay type: cell-based; settings: agonist activity of compound at 1 μM, relative to 10 μM γ linolenic acid as 100%, wave peak height; CHO cells stably expressing human GPR40
T1 construct: expressed in transfected cells
T1 sequence (O14842 whole entry): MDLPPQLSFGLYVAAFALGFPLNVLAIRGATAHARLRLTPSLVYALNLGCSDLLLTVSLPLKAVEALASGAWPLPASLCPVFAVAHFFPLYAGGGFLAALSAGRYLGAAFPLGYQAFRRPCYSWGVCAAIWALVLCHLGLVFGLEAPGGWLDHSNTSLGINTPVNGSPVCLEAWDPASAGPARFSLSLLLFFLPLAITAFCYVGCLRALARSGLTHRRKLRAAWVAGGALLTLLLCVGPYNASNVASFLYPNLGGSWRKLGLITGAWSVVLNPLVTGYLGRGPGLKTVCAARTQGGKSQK
Method: The CHO cell lines that stably expressed human derived GPR40 were used for the determination of the agonist activity. Unless particularly specified, the CHO cell lines were cultured in an α-MEM medium (Wako Pure Chemical Industries, Ltd.) containing 10% dialyzed fetal bovine serum (TRA Thermo Electron).
The cells cultured almost to confluent on the day before assay were rinsed with PBS (Invitrogen), detached with 0.5 mM EDTA (Wako Pure Chemical Industries, Ltd.), and recovered by centrifugation. The obtained cells were counted, diluted to 2×10^5 cells per 1 mL medium, dispensed by 40 μL per well to a 384 well black clear bottomplate (PE Biosystems), and cultured overnight in a CO2 incubator. Various test compounds were added to CHO cells prepared as mentioned above, and change of intracellular calcium concentration was measured using FLIPRtetra (Molecular Device). For the measurement by this device, a Calcium 4 assay kit (Molecular Devices: R8142) was used.
First, fatty acid free BSA at the final concentration of 0.1% was added to the buffer attached to the kit to prepare an assay buffer. Using the assay buffer, a loading solution with Fluo4 was prepared such that the final concentration of fatty acid free BSA was 0.1% and the final concentration of probenecid was 625 μM. On the other hand, a test compound was diluted with the assay buffer to a given concentration, and dispensed to the polypropylene 384-well plate (sample plate). The medium was removed from the cell culture plate, and the loading solution with Fluo4 was dispensed by 25 μL. After culture in a CO2 incubator at 37° C. for 40 min, a sample plate and a cell plate were simultaneously set on the FLIPRtetra, various test compounds were added by 25 μL according to the program of the device, and change of intracellular calcium concentration was measured. The agonist activity of each compound at 1 μM was calculated as a relative activity value to the activity of 10 μM γ linolenic acid as 100% from the wave peak height.

N-STZ-1.5 rat = experiment: Oral glucose tolerance test in N-STZ-1.5 rat (type 2 diabetes model); assay type: in vivo; settings: male N-STZ-1.5 rats, 1 mg/kg oral, glucose 1.5 g/kg 1 hr after dosing; for Blood glucose lowering rate: glucose AUC 0-120 min vs control group; for Insulin increasing rate: insulin AUC 0-120 min vs control group
Method: The blood glucose increase suppressive action and insulin secretagogue action of the compound of the present invention were evaluated by an oral glucose tolerance test using N-STZ-1.5 rat (TAKEDA RABICS).
Streptozotocin (120 mg/kg) was subcutaneously administered to male Wistar Kyoto rats (1-2 days old) to prepare N-STZ-1.5 rat which is a type 2 diabetes model. The rats were bred under free access to a feed (CE-2, sold by CLEA Japan, Inc.).
Male N-STZ-1.5 rats (21-week-old) were fasted for 19-21 hr, and the body weight was measured. Heparin (Ajinomoto Co., Inc.) was added as an anticoagulant, and aprotinin (SIGMA) was added as a protease inhibitor, and the blood was collected from the tail vein. 0.5% Methylcellulose (control group) or a 0.5% methylcellulose suspension of a test compound (1 mg/kg body weight) was orally administered to the rats of each group (6 per group) at 5 ml/kg and, 1 hr after the administration, a glucose solution (Otsuka Pharmaceutical Factory, Inc.) was orally administered at 1.5 g/5 ml/kg. The blood was collected from the tail vein immediately before glucose loading (0 min value) and 10, 30, 60, 120 min thereafter. The blood was centrifuged and the plasma was separated. The plasma glucose and insulin concentration of the obtained plasma were measured. The plasma glucose was measured by automatic analyzer 7080 (HITACHI), and the insulin concentration was measured by RAT INSULIN RIA KIT (LINCO Research). The glucose AUC and insulin AUC were calculated from the obtained values by the following formulas. Moreover, blood glucose lowering rate and insulin increasing rate were calculated from the obtained AUC by the following formulas. Statistical significance versus control was analyzed by Student's t-test or Aspin-Welch test.
{(0 min plasma glucose)+(10 min plasma glucose)}×10/2+{(10 min plasma glucose)+(30 min plasma glucose)}×20/2+{(30 min plasma glucose)+(60 min plasma glucose)}×30/2+{(60 min plasma glucose)+(120 min plasma glucose)}×60/2
{(0 min plasma insulin)+(10 min plasma insulin)}×10/2+{(10 min plasma insulin)+(30 min plasma insulin)}×20/2+{(30 min plasma insulin)+(60 min plasma insulin)}×30/2+{(60 min plasma insulin)+(120 min plasma insulin)}×60/2
blood glucose lowering rate: [(test compound administration group glucose AUC/control group glucose AUC)−1]×100
insulin increasing rate: [(test compound administration group insulin AUC/control group […] AUC)-1]×100

Wistar fatty rat = experiment: Oral glucose tolerance test in Wistar fatty rat; assay type: in vivo; settings: female Wistar fatty rats, 1 mg/kg oral, glucose 1 g/kg 1 hr after dosing; glucose AUC 0-120 min vs control group
Method: The blood glucose increase suppressive action of the compound of the present invention was evaluated by an oral glucose tolerance test using Wistar fatty rat (TAKEDA RABICS).
The animal used was female Wistar fatty rat (prepared by TAKEDA RABICS, 18- to 22-week-old). The rats were bred under free access to a feed (CE-2, sold by CLEA Japan, Inc.).
Female Wistar fatty rats (18- to 22-week-old) were fasted for 19-21 hr, and the body weight was measured. Heparin (Ajinomoto Co., Inc.) was added as an anticoagulant, and aprotinin (SIGMA) was added as a protease inhibitor, and the blood was collected from the tail vein. 0.5% Methylcellulose (control group) or a 0.5% methylcellulose suspension of a test compound (1 mg/kg body weight) was orally administered to the rats of each group (6 per group) at 5 ml/kg and, 1 hr after the administration, a glucose solution (Otsuka Pharmaceutical Factory, Inc.) was orally administered at 1 g/5 ml/kg. […] The plasma glucose of the obtained plasma were measured by automatic analyzer 7080 (HITACHI). The glucose AUC was calculated from the obtained values by the formulas described in Experimental Example 2. Moreover, blood glucose lowering rate was calculated from the obtained AUC by the formulas described in Experimental Example 2. Statistical significance versus control was analyzed by Student's t-test.

| Structure (SMILES) | melting point | activity (%) (human derived GPR40) | Blood glucose lowering rate (N-STZ-1.5 rat) | Insulin increasing rate (N-STZ-1.5 rat) | Blood glucose lowering rate (Wistar fatty rat) |
| --- | --- | --- | --- | --- | --- |
| Cc1cc(OCCCS(C)(=O)=O)cc(C)c1-c1cccc2c1OC[C@H]2Nc1ccc2c(c1)OC[C@H]2CC(=O)O [Example 7, [(3S)-6-{[(3S)-7-{2,6-dimethyl-4-[3-(methylsulfonyl)propoxy]phenyl}-2,3-dihydro-1-benzofuran-3-yl]amino}-2,3-dihydro-1-benzofuran-3-yl]acetic acid] | 169 °C | 124% | −20.5%** | +39.5%^$ |  |
| Cc1cc(OC[C@@H]2CCC(=O)N2)cc(C)c1-c1cccc2c1OC[C@H]2Nc1ccc2c(c1)OC[C@H]2CC(=O)O [Example 8, [(3S)-6-{[(3S)-7-(2,6-dimethyl-4-{[(2S)-5-oxopyrrolidin-2-yl]methoxy}phenyl)-2,3-dihydro-1-benzofuran-3-yl]amino}-2,3-dihydro-1-benzofuran-3-yl]acetic acid] | 161 °C | 131% |  |  |  |
| CCOc1nc2ccc(F)c(F)c2n1-c1cccc2c1OC[C@H]2Nc1ccc2c(c1)OC[C@H]2CC(=O)[O-].[Na+] [Example 33, sodium [(3S)-6-{[(3S)-7-(2-ethoxy-6,7-difluoro-1H-benzimidazol-1-yl)-2,3-dihydro-1-benzofuran-3-yl]amino}-2,3-dihydro-1-benzofuran-3-yl]acetate] |  | 109% |  |  | −19.5%** |
| Cc1nc(N2CCOCC2)nc(C)c1-c1cccc2c1OC[C@H]2Nc1ccc2c(c1)OC[C@H]2CC(=O)O.O [Example 77-1, Hydrate of [(3S)-6-({(3S)-7-[4,6-dimethyl-2-(morpholin-4-yl)pyrimidin-5-yl]-2,3-dihydro-1-benzofuran-3-yl}amino)-2,3-dihydro-1-benzofuran-3-yl]acetic acid] |  |  | −13.6%^$ | +40.2%^$ |  |

Further lines, with some results ahead:

| melting point | activity (%) (human derived GPR40) | Structure (SMILES) | Blood glucose lowering rate (N-STZ-1.5 rat) | Insulin increasing rate (N-STZ-1.5 rat) | Blood glucose lowering rate (Wistar fatty rat) |
| --- | --- | --- | --- | --- | --- |
| 154 °C |  | Cc1nc(N2CCOCC2)nc(C)c1-c1cccc(CNc2ccc3c(c2)OC[C@H]3CC(=O)O)c1C (as salt: salt) [Example 242, 1,3-dihydroxy-2-(hydroxymethyl)propan-2-aminium [(3S)-6-({3[4,6-dimethyl-2-(morpholin-4-yl)pyrimidin-5-yl]-2-methylbenzyl}amino)-2,3-dihydro-1-benzofuran-3-yl]acetate] |  |  |  |
| 176 °C | 128% | Cc1cc(OC2CCS(=O)(=O)CC2)cc(C)c1-c1cccc2c1OC[C@H]2Nc1ccc2c(c1)OC[C@H]2CC(=O)O [Example 9, [(3S)-6-{[(3S)-7-{4-[(1,1-dioxidotetrahydro-2H-thiopyran-4-yl)oxy]-2,6-dimethylphenyl}-2,3-dihydro-1-benzofuran-3-yl]amino}-2,3-dihydro-1-benzofuran-3-yl]acetic acid] |  |  | −15.8%** |
| 168 °C |  | Cc1nc(N2CCOCC2)nc(C)c1-c1cccc2c1OC[C@H]2Nc1ccc2c(c1)OC[C@H]2CC(=O)O [Example 77, [(3S)-6-({(3S)-7-[4,6-dimethyl-2-(morpholin-4-yl)pyrimidin-5-yl]-2,3-dihydro-1-benzofuran-3-yl}amino)-2,3-dihydro-1-benzofuran-3-yl]acetic acid] |  |  |  |
| 169 °C | 126% | Cc1nc(N2CCCC2)nc(C)c1-c1cccc2c1OC[C@H]2Nc1ccc2c(c1)OC[C@H]2CC(=O)O [Example 79, [(3S)-6-({(3S)-7-[4,6-dimethyl-2-(pyrrolidin-1-yl)pyrimidin-5-yl]-2,3-dihydro-1-benzofuran-3-yl}amino)-2,3-dihydro-1-benzofuran-3-yl]acetic acid] |  |  |  |
| 146 °C | 129% | CCCN(c1cc(C)ccn1)c1cccc2c1OC[C@H]2Nc1ccc2c(c1)OC[C@H]2CC(=O)O [Example 82, [(3S)-6-({(3S)-7-[(4-methylpyridin-2-yl)(propyl)amino]-2,3-dihydro-1-benzofuran-3-yl}amino)-2,3-dihydro-1-benzofuran-3-yl]acetic acid] |  |  |  |
